From US20120014918A1, “ADDITION SALTS OF AMINES CONTAINING HYDROXYL AND/OR CARBOXYLIC GROUPS WITH AMINO NICOTINIC ACID DERIVATIVES AS DHODH INHIBITORS” (priority 2009, published 2012)
Counter-ions that a name gives are not always drawn.

What was measured:
Format in all cases: physicochemical
Water-solubility test = conditions: 25° C. (room temperature), expressed as acid
[1] = Dynamic Vapour Sorption (DVS) profiles; conditions: 25° C.; for Hygroscopicity according to the DVS pattern: sorption 0 to 95% RH and desorption; for Hysteresis in the DVS pattern: sorption/desorption isotherms; for Mass increase at 80% relative humidity: 80% RH; for Mass increase at 90% relative humidity: 90% RH
Procedure: Dynamic Vapour Sorption (DVS) profiles were obtained using an Igasorp Hiden Isochema instrument (serial number IGA-SA-066). After an initial stabilization period, at least two isotherms (at 25° C.) were obtained for each sample: a moisture sorption from 0 to 95% relative humidity and moisture desorption from 95% relative humidity to dryness. Both isotherms were performed in 10% humidity steps, with a minimum time of 10 minutes and a maximum time of 30 minutes for each step.

[2] = Differential scanning calorimetry (DSC) thermograms; conditions: heated 30 to 350° C. at 10° C./min
Procedure: The differential scanning calorimetry (DSC) thermograms analyses were obtained using a DSC-821 Mettler-Toledo instrument, serial number 5117423874. Samples were weighed into an aluminium pan, an aluminium lid placed on top of the sample and compressed with a brass rod. Samples were equilibrated at 30° C. and heated at 10° C./min to 350° C. The instrument was calibrated using indium and zinc standards.

Water Solubility @ 25° C. (mg/mL as acid) (Water-solubility test) [mg/mL]	Hygroscopicity according to the DVS pattern [1]	Mass increase at 80% relative humidity [1] [%]	Mass increase at 90% relative humidity [1] [%]	SMILES	Hysteresis in the DVS pattern [1]	Stability (no conversion into other polymorphs, no decomposition) from DSC thermogram [2]
0.210	not hygroscopic	–	–	Cc1c(-c2ccccc2)cc(F)c(Nc2ncccc2C(=O)O)c1F [Ex. 4, 2-(3,5-difluoro-2-methylbiphenyl-4-ylamino)nicotinic acid, meglumine salt]	–	–
0.478	slightly hygroscopic	2.7	6.2	CCOc1cccc(-c2ccc(Nc3ncccc3C(=O)O)c(OC(F)(F)F)c2)c1 [Ex. 3, 2-(3′-ethoxy-3-(trifluoromethoxy)biphenyl-4-ylamino)nicotinic acid, meglumine salt]	no hysteresis	high stability
0.490	a bit hygroscopic	5.7	14.9	Cc1c(-c2ccccc2)cc(F)c(Nc2ncccc2C(=O)O)c1F [Ex. 5, 2-(3,5-difluoro-2-methylbiphenyl-4-ylamino)nicotinic acid, tromethamine salt]	without hysteresis	–

The next lines start with the compound.

SMILES	Water Solubility @ 25° C. (mg/mL as acid) (Water-solubility test) [mg/mL]	Hygroscopicity according to the DVS pattern [1]	Mass increase at 80% relative humidity [1] [%]	Mass increase at 90% relative humidity [1] [%]	Hysteresis in the DVS pattern [1]	Stability (no conversion into other polymorphs, no decomposition) from DSC thermogram [2]
Cc1c(-c2ccccc2)cc(F)c(Nc2ncccc2C(=O)O)c1F [C3, 2-[(3,5-difluoro-2-methyl-1,1′-biphenyl-4-yl)amino]nicotinic acid, reference compound]	0.002	–	–	–	–	–
COc1cccc(-c2cc(F)c(Nc3ncccc3C(=O)O)c(F)c2)c1 [Ex. 1, 2-[(3,5-difluoro-3′-methoxy-1,1′-biphenyl-4-yl)amino]nicotinic acid, meglumine salt]	2.810	not hygroscopic	–	–	no hysteresis	high stability
COc1cccc(-c2cc(F)c(Nc3ncccc3C(=O)O)c(F)c2)c1 [C1, 2-[(3,5-difluoro-3′-methoxy-1,1′-biphenyl-4-yl)amino]nicotinic acid, reference compound]	0.004	–	–	–	–	–
COc1cccc(-c2cc(F)c(Nc3ncccc3C(=O)O)c(F)c2)c1 [Ex. 6, 2-[(3,5-difluoro-3′-methoxy-1,1′-biphenyl-4-yl)amino]nicotinic acid, L-arginine salt]	–	–	–	–	–	high stability
CCOc1cccc(-c2ccc(Nc3ncccc3C(=O)O)c(OC(F)(F)F)c2)c1 [C2, 2-{[3′-ethoxy-3-(trifluoromethoxy)-1,1′-biphenyl-4-yl]amino}nicotinic acid, reference compound]	0.008	–	–	–	–	–
COc1cccc(-c2cc(F)c(Nc3ncccc3C(=O)O)c(F)c2)c1 [Ex. 2, 2-[(3,5-difluoro-3′-methoxy-1,1′-biphenyl-4-yl)amino]nicotinic acid, tromethamine salt]	0.870	not hygroscopic	–	–	no hysteresis	high stability
